Measured values from publication PMC9280334 (Frontiers in Chemistry, 2022).
Several values for one entry are separate records, joined by “and”; a condition that tells them apart may be missing. Identical values can stand only once.

Columns and labels:
AChE (electric eel) = molecular target: T1, AChE (electric eel) (Electrophorus electricus, UniProt O42275); experiment: biochemical; format: biochemical; conditions: for IC50: electric eel AChE, mean ± SEM of three experiments
T1 construct: purchased Sigma-Aldrich
Protocol: (§1) AChE, BuChE, 5,5'-dithiobis (2-nitrobenzoic acid) (DTNB), acetyl- and butyrylthiocholine iodides were purchased from Sigma-Aldrich. Five different concentrations of the corresponding compounds in ethanol-DMSO (9:1) were prepared. […] After 3 min of incubation, the substrate solution (acetylthiocholine iodide or butyrylthiocholine iodide, 0.05 M) was added and then incubated for at least 1 min at 25°C. […] The inhibition curve was obtained by plotting the percentage of enzyme activity (100% for the reference) versus the logarithm of the tested compound concentration. […]

BuChE (equine serum) = molecular target: T2, BuChE (equine serum) (Equus caballus, UniProt P81908); experiment: biochemical; format: biochemical; conditions: for IC50: equine serum BuChE, mean ± SEM of three experiments
T2 construct: purchased Sigma-Aldrich
Protocol: as §1

PC12 cells = experiment: Neuroprotection against H2O2-induced cell death in PC12 cells (MTT); format: cell-based; conditions: H2O2 (150 μM)-induced injury, mean ± SEM
Protocol: The cell viability was measured using MTT [3-(4,5-dimethylthiazol-2-yl)-2,5-diphenyl tetrazolium bromide] assay ([Datki et al., 2003]). PC12 cells (from the Iranian Biological Resource Center, IBRC) received different treatments, including no treatment (control), 150 μM H2O2 alone, or 150 μM H2O2 in combination with 0.1–50 μM of the tested compound. The cells were seeded at 1 × 10^4 cells/well and incubated at 37 °C under a 5% CO2 atmosphere for 24 h, then treated with the tested compound and incubated for 3 h. Next, the cells were exposed to H2O2 for 2 h again. The MTT solution (20 μl, 5 mg/ml) was next replaced with the medium and incubated for 4 h. 100 μl of DMSO was added to dissolve the formazan precipitate. Absorbance was then measured at 570 nm using a multi-mode plate reader (Biotek, Winooski, VT). Cell viability is expressed as a percentage relative to the untreated control.

SH-SY5Y cells [1] = experiment: Cytotoxicity on SH-SY5Y cells (MTT); format: cell-based, human; conditions: for Cytotoxic effect on SH-SY5Y cells: 1 μM; for SH-SY5Y cell viability (% of control): cytotoxic effect, 1 µM compound alone, MTT, mean ± SEM
Protocol: (§2) Cell culture chemicals were purchased from Lonza, HyClone, or Thermo Scientific. Human neuroblastoma SH-SY5Y cells were maintained in Dulbecco’s modified Eagle’s medium (DMEM) supplemented with 10% FBS, 1% L-glutamine, and 1% antibiotic mix at 37°C in a humidified atmosphere containing 5% CO2. Cell viability was determined using a thiazolyl blue tetrazolium bromide [3-(4,5-dimethyl-2-thiazolyl)-2,5-diphenyl-2H-tetrazolium bromide] (MTT) assay ([Datki et al., 2003]). SH-SY5Y cells were seeded into 384-well plates at 3,000 cells per well and treated with novel compounds at a concentration of 1 μM, 3 h prior to the addition of Aβ1–42 (5 μM). After 24 h of incubation, 5 μl of the MTT reagent (5 mg/ml) was added to each well. 40 μl of DMSO was used to dissolve formazan crystals. Absorbance values were measured at 690 and 570 nm using a BMG Omega Fluorostar microplate reader.

SH-SY5Y cells [2] = experiment: Neuroprotection against Aβ1-42-induced cytotoxicity in SH-SY5Y cells (MTT); format: cell-based, human; conditions: for SH-SY5Y cell viability (% of control): 1 µM compound before 5 μM Aβ1-42, MTT, mean ± SEM
Protocol: as §2, with “(MTT) assay ([Datki et al., 2003]).” left out

Aβ1-42 = molecular target: T3, Aβ1-42 (Homo sapiens, UniProt P05067); experiment: Inhibition of self-induced Aβ1-42 aggregation (ThT assay); format: biochemical; conditions: for Inhibition of self-induced Aβ aggregation: Aβ1-42 20 μM, compound 100 μM, after 48 h, ThT, mean ± SEM of three experiments; for Inhibition of Aβ aggregation, fold more effective than the reference drug donepezil: self-induced Aβ aggregation, ThT assay
T3 construct: Amyloid-β protein 1–42 (Sigma A9810) was dissolved; purchased Sigma A9810
Protocol: Inhibitory properties of the compounds on self-induced and AChE-induced aggregation of amyloid-β protein 1–42 was determined using a thioflavin T (ThT)-based fluorescence assay with slight modifications ([Levine, 1993]). The ThT excitation/emission was measured at 448 nm/490 nm at 48 h using a SpectraMax® Microplate Reader. Amyloid-β protein 1–42 (Sigma A9810) was dissolved in Phosphate Buffer Saline pH 7.4 (PBS, HyClone Thermo Scientific) containing ammonium hydroxide (1%). Aβ1-42 (50 μM) was incubated for 24 h at 37°C for prefibrillation.
(§3) To determine AChE-induced Aβ1-42 aggregation, Aβ1-42 (20 μl) ± human recombinant AChE (0.01 u/ml, Sigma C1682) were added to […] of PBS buffer pH 7.4 including 0.15 M NaCl and 20 μM thioflavin T (ThT). The mixture was incubated at 37°C in the absence and presence of the compounds (100 μM) and the fluorescence intensities were determined. Due to the presence of the tested compounds, inhibition of self- or AChE-induced aggregation percent was determined by the following calculation: [100-((IFi/IFo) × 100)] where IFi and IFo are the fluorescence intensities obtained for Aβ ± AChE in the presence and in the absence of inhibitors.

[3] = molecular target: T4, Aβ1-42 and AChE (human recombinant AChE) (Homo sapiens, UniProt P22303); experiment: Inhibition of AChE-induced Aβ1-42 aggregation (ThT assay); format: biochemical; conditions: Aβ1-42 and AChE (0.01 u/ml), compound 100 μM, mean ± SEM of three experiments, read-out: Inhibition of AChE-induced Aβ aggregation
T4 construct: Amyloid-β protein 1–42 (Sigma A9810) was dissolved; purchased Sigma C1682 (AChE); A9810 (Aβ1-42)
Protocol: Amyloid-β protein 1–42 (Sigma A9810) was dissolved in Phosphate Buffer Saline pH 7.4 (PBS, HyClone Thermo Scientific) containing ammonium hydroxide (1%). Aβ1-42 (50 μM) was incubated for 24 h at 37°C for prefibrillation.
as §3

[4] = ratio of IC50 values vs Donepezil

T2 sequence (P81908 whole entry): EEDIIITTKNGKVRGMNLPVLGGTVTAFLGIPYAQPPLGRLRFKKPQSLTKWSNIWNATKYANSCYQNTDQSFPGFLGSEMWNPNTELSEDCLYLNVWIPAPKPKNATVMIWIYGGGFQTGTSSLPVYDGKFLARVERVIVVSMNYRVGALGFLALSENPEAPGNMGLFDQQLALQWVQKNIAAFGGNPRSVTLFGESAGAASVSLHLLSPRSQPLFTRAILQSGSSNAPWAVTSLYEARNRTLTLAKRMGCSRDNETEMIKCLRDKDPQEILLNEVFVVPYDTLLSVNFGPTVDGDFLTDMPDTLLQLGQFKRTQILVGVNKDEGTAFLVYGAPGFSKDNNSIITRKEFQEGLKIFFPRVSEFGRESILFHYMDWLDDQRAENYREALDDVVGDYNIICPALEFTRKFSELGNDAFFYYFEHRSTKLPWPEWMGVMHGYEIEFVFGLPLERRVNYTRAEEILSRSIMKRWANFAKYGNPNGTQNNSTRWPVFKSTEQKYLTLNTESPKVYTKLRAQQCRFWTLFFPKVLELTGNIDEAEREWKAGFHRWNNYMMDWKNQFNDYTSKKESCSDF
T3 sequence (P05067 672-713 limits assumed): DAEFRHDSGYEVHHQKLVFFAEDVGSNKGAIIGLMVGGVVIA
T1 sequence (O42275 24-633): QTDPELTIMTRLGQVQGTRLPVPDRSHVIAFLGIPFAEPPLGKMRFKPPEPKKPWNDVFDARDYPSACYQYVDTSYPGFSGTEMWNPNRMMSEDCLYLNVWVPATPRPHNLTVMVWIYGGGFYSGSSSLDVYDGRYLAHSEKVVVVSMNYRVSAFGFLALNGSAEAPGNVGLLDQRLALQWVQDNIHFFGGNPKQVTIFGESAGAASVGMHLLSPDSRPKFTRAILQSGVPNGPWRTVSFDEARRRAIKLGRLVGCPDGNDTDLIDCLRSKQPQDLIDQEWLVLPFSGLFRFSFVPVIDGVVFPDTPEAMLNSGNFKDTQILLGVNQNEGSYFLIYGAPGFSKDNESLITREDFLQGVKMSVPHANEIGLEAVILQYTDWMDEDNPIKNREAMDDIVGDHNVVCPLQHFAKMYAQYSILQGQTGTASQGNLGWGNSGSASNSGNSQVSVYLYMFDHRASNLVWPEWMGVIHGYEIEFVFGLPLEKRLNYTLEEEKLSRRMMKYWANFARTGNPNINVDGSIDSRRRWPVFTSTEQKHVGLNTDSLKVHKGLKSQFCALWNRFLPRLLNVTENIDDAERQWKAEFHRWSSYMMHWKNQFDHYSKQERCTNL
T4 sequence (P22303 32-614): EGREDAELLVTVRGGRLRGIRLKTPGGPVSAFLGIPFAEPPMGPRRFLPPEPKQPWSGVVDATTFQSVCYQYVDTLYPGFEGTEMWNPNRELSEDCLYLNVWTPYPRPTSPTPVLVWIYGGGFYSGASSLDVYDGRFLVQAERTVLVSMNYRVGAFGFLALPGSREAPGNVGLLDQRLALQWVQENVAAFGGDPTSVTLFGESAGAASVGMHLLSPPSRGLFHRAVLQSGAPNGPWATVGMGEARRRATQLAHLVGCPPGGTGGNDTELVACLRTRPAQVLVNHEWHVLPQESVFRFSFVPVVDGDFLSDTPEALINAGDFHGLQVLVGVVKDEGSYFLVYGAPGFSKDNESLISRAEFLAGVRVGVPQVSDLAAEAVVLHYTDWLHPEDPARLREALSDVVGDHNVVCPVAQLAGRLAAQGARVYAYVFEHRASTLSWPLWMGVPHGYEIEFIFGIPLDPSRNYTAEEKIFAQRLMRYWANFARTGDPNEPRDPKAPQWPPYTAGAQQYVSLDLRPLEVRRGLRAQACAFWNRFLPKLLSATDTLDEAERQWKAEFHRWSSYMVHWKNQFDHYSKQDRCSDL

Structure (SMILES)	IC50 (AChE (electric eel))	AChE inhibition, times more active than the standard drug Donepezil (AChE (electric eel); [4])	IC50 (BuChE (equine serum))	PC12 cell viability (% of control) (PC12 cells; 0.1 μM compound)	PC12 cell viability (% of control) (PC12 cells; 1 μM compound)	PC12 cell viability (% of control) (PC12 cells; 5 μM compound)	PC12 cell viability (% of control) (PC12 cells; 10 μM compound)	PC12 cell viability (% of control) (PC12 cells; 20 μM compound)	PC12 cell viability (% of control) (PC12 cells; 50 μM compound)	Cytotoxic effect on SH-SY5Y cells (SH-SY5Y cells [1])	SH-SY5Y cell viability (% of control) (SH-SY5Y cells [1])	SH-SY5Y cell viability (% of control) (SH-SY5Y cells [2])	Inhibition of self-induced Aβ aggregation (Aβ1-42)	Inhibition of Aβ aggregation, fold more effective than the reference drug donepezil (Aβ1-42)	inhibition at 100 µM [3]	BuChE inhibition, times more active than the standard drug Donepezil (BuChE (equine serum); [4])	Neuroprotective effect against Aβ1-42-induced cytotoxicity in SH-SY5Y cells (SH-SY5Y cells [2]; 1 μM)
O=c1oc2ccc([N+](=O)[O-])cc2cc1-c1ccc(OCCC[n+]2ccccc2)cc1.[Br-] [Compound 3f, 1-(3-(4-(6-Nitro-2-oxo-2H-chromen-3-yl)phenoxy)propyl)pyridinium Bromide]	2 nM	7 times	24 ± 5 nM	34.1 ± 1.0 % of control	42.8 ± 1.4 % of control	43.1 ± 1.5 % of control	45.0 ± 0.8 % of control	48.3 ± 0.4 % of control	50.8 ± 0.6 % of control	no cytotoxic effect	83.6 ± 3.4 % of control	89 % of control and 89.0 ± 9.8 % of control	84.7 ± 1.6%	about 2 fold	87.2 ± 5.7%		
O=c1oc2ccccc2cc1-c1ccc(OCCC[n+]2ccccc2)cc1.[Br-] [Compound 3a, 1-(3-(4-(2-Oxo-2H-chromen-3-yl)phenoxy)propyl)pyridinium Bromide]	4 nM		84 ± 4 nM	39.4 ± 1.7 % of control	42.2 ± 1.3 % of control	53.6 ± 1.4 % of control	55.6 ± 0.1 % of control	57.4 ± 0.4 % of control	58.3 ± 1.4 % of control	no cytotoxic effect	81.2 ± 10.0 % of control	79 % of control and 79.1 ± 4.0 % of control	73.3 ± 15.4%	about 2 fold	76 ± 1.6%		
CN(C)c1cc[n+](CCCOc2ccc(-c3cc4cc([N+](=O)[O-])ccc4oc3=O)cc2)cc1.[Br-] [Compound 3t, 4-(Dimethylamino)-1-(3-(4-(6-nitro-2-oxo-2H-chromen-3-yl)phenoxy)propyl)pyridin-1-ium Bromide]	14 ± 0.9 nM		9 ± 0.4 nM	38.3 ± 0.9 % of control	45.3 ± 0.7 % of control	53.6 ± 0.7 % of control	56.3 ± 1.6 % of control	68.2 ± 0.1 % of control	71.8 ± 1.1 % of control	no cytotoxic effect	84.8 ± 6.8 % of control	59.7 ± 2.8 % of control	66.4 ± 4.7%	about 2 fold	52.5 ± 4.9%	305 times	could not protect neuronal cells
